# Assay results reported in patent US20230111504A1, “COR[…] AND AVERMECTINS” (Huvepharma EOOD, priority 2020, published 2023).
# Read-outs that look alike come from different tables or passages of the source.
# Columns and labels:
# [1] = tested on: SARS-CoV-2; test: COVID-19 clinical trial: viral clearance in upper respiratory tract swab samples (RT-PCR); assay type: in vivo, human
# Experimental: (§1) Inclusion Criteria • 1. Male or female patients at least 18 years and up to 75 years old • 2. Signed informed consent • 3. Admitted to hospital for treatment of COVID-19. • 4. Patient within 7 days from symptom onset and within 72 hours after laboratory diagnosis (SARS-CoV-2 RT-PCR) • 5. Mild to Moderate COVID-19 disease defined as clinical status category up to 3 on the WHO 9-point ordinal scale, and/or NEWS2 score of 0 to 4 inclusive. • Hospitalized, no oxygen treatment • 6. Presence of at least 1 symptom characteristic for COVID-19 disease, e.g. fever, cough, sore throat, myalgia, fatigue, GI disorders, skin lesions, anosmia, ageusia, headache, etc • 7. In women of childbearing potential, negative pregnancy test and commitment to use contraceptive method throughout the study.
# (§2) Patients are screened for 24-36 hours. […] It is encouraged to screen potential participants immediately at the day of hospitalization (including informed consent, assessment of inclusion/exclusion criteria, screening laboratory tests all done by the local central lab, assessment of clinical symptoms criteria) and randomize patients on the same day (thus, Screening period and Day 1 will coincide). To assess eligibility criteria, central local laboratory values obtained within 24-36 hours of randomization will be used, except for pre-study testing of positive status of COVID-19 infection where a 72-hours window.
# Primary endpoint based on which the primary study objective will be assessed is proportion of patients who have shown negative SARS-CoV-2 PCR test on Day 7.
# (§3) Day 1 is defined as the day of the first IMP/placebo administration.
# Viral Clearance in Upper Respiratory Tract Swab Samples (Qualitative)—Remission
# Upper respiratory tract swab samples will be collected on Days 3, 4, 5, 6, 7, 9, 12 and 14 or until two negative results are obtained. Between Day 15 and Day 28 RT-PCR shall be done upon the discretion of the Investigator until 2 consecutive negative tests.
# No further RT-PCR tests will be done after 2 consecutive negative tests are obtained at any time point of the study. Swab samples should be obtained from the nasopharynx and oropharynx with two different swabs and combined in one tube, containing universal transport media. Samples are collected preferably in the mornings of each study day. Full instructions for collection, preparation, labelling, storage and shipment of samples are provided in the Laboratory Manual.
# [2] = tested on: COVID-19; test: COVID-19 clinical trial: clinical improvement on WHO 9-category ordinal scale; assay type: in vivo, human
# Experimental: as §1, §2
# The secondary endpoints, related to the secondary study objectives are the following: • a. Number of patients achieving clinical improvement on Day 7 • b. Number of patients achieving clinical improvement on Day 14 • c. Number of patients achieving clinical recovery on Day 7 • d. Number of patients achieving clinical recovery on Day 14
# as §3
# The clinical disease severity during the study will be assessed based on the WHO Ordinal Scale for Clinical Status (Table 2). The WHO scale is a 9-category ordinal scale and was developed to have a standardized measure of the COVID-19 disease severity. The scale comprises patient status (outpatient or hospitalized), virus status (infected yes or no), limitation of activities, oxygen support, and organ support.
# The same picture was observed on Day 5, with difference 18% (p=0.03 . . . ), regarding the endpoint Clinical improvement. This endpoint was measured using WHO 9-category ordinal scale, developed to have a standardized measure of the COVID-19 disease severity. Clinical improvement is defined as a decrease on WHO ordinal scale score by at least one point. For our statistical calculations from data obtained from the clinical trials we used the method described above i.e. O'Brien-Fleming method for normally distributed data.
# [3] = tested on: COVID-19; test: COVID-19 clinical trial: time to hospital discharge; assay type: in vivo, human; settings: p=0.2755
# Experimental: as §1
# as §2, with “window. […]” for “window.”
# [4] = tested on: C reactive protein; test: COVID-19 clinical trial: predictive marker C reactive protein; assay type: in vivo, human; settings: Day 14
# [5] = tested on: D-dimer; test: COVID-19 clinical trial: predictive marker D-dimer; assay type: in vivo, human
# [6] = acute oral, mice; cited from earlier work
# [7] = acute oral, rats; relative to 200 μg/kg in mice; cited from earlier work
# [8] = rhesus monkeys, cited from earlier work
# [9] = dogs; cited from earlier work
# [10] = variety of species; cited from earlier work
# [11] = repeated dose, 2 weeks, rhesus monkeys; cited from earlier work
# [12] = fourteen-week study, rats; cited from earlier work
# [13] = fourteen-week study, dogs; cited from earlier work
# [14] = various species; cited from earlier work
# [15] = mice; cited from earlier work
# [16] = rats; cited from earlier work
# [17] = rabbits; cited from earlier work
# [18] = tested on: mouse lymphoma; settings: cited from earlier work
# [19] = tested on: human fibroblast cell culture; settings: cited from earlier work
# [20] = cited from earlier work; for mean peak plasma concentration of the major component (H2B1a): single 12-mg dose (mean 165 mcg/kg)
# [21] = people treated with ivermectin; cited from earlier work
substance,measurement,setting,value
ivermectin,effect on viral clearance,"[1]; Day 4, immediately after treatment, 2 consecutive negative PCR tests",beneficial effect on the viral clearance
same,patients with negative PCR test results (2 consecutive negative tests),"[1]; Day 4, 400 μg/kg/day peroral Days 1-3 plus SoC, placebo arm 42%",52%
same,"Day of second negative PCR test, Mean","[1]; N=50, 400 μg/kg/day peroral Days 1-3 plus SoC",5.52
same,day by which the effect appears,[1]; PCR test endpoint,< 7 days
same,"Day of second negative PCR test, Difference Reference minus Test","[1]; p-value 0.3407, statistically insignificant",0.54 days
same,Clinical improvement versus placebo arm,"[2]; Day 4, p=0.02..., decrease on WHO ordinal scale by at least one point",statistically significant difference
same,"Clinical improvement, difference versus placebo arm","[2]; Day 5, p=0.03...",18%
same,Clinical improvement by visit day,"[2]; FIG. 3, later difference statistically insignificant",better results at days 4 and 5
same,overall clinical benefit versus Placebo treatment arm,[2]; early days of infection (day 4 and day 5 after initial dose),definitely shows clinical benefit
same,"Time to hospital discharge, difference between arms",[3],no statistically significant difference
same,CRP mean value,[4],13.76 mg/L
same,CRP median value,[4],3.70 mg/L
same,D-dimer mean value,[5]; Day 3,395.8 ng/mL
same,D-dimer mean value,[5]; Day 14,561.69 ng/mL
same,dose producing tremors and ataxia,[6],0.2 mg/kg
same,dose producing tremors and ataxia,[7],slightly higher doses
same,minimum toxic dose,[8]; acute oral,"2,000 μg/kg"
same,"toxic effects (emesis, mydriasis, sedation) at high doses",[8]; doses up to 24 mg/kg (120-fold the clinical dose),only slight increases in the observed toxic effects
same,single oral dose with no significant lethality,[9],up to 10 mg/kg
same,tolerability of a 200 μg/kg dose,[10],generally well tolerated
same,dose with no adverse effects,[11],"up to 1,200 μg/kg/day"
same,dose with no adverse effects,[12],400 µg/kg/day
same,dose with no adverse effects,[13],500 µg/kg/day
same,breeding performance,[14],has not been adversely affected
same,oral dose causing cleft palates,[15],0.4 mg/kg/day
same,oral dose causing cleft palates,[16],10 mg/kg/day
same,dose causing cleft palates and clubbed feet,[17],3 mg/kg/day
same,mouse lymphoma mutation assay result,[18],negative
same,unscheduled DNA synthesis,[19],did not induce
same,mean peak plasma concentration of the major component (H2B1a),"[20]; first of two studies, fasting healthy volunteers, range 16.4-101.1",46.6 (±21.9) ng/mL
same,period of excretion in the feces,"[20]; ivermectin and/or metabolites, excreted almost exclusively in the feces",~12 days
same,plasma half-life,"[20]; man, oral administration",approximately 18 hours
same,plasma concentration versus dose,[20]; oral administration,approximately proportional to the dose
same,administered dose excreted in the urine,[20]; oral,less than 1%
same,mean peak plasma concentration of the major component (H2B1a),"[20]; second of two studies, fasting healthy volunteers, range 13.9-68.4",30.6 (±15.6) ng/mL
same,time of peak plasma concentration after dosing,"[20]; single 12-mg dose, fasting healthy volunteers",approximately 4 hours
same,common side effects,[21],"headache, dizziness, drowsiness, muscle pain, abdominal pain, nausea, vomiting or diarrhea, pruritus, fatigue, hypotension"
